Reference: patent publication US9040547B2, “Pyrrolopyrimidine and purine derivatives” (PFIZER INC., priority 2011, dated 2015)
Counter-ions that a name gives are not always drawn.

Assays:
Format in all cases: cell-based
[1] = test system: NIH3T3/EGFR_E746-A750_deletion; test: Cell proliferation assay (CellTiter-Glo), NIH3T3/EGFR_E746-A750_deletion; conditions: Mus musculus, NIH3T3, 120 h, 3T3 cell line, three to five days of compound treatment, read-out: 3T3 del IC50
Procedure: (§1) Cell proliferation was measured using the CellTiter-Glo® Luminescent Cell Viability Assay. The assay involves the addition of a single reagent (CellTiter-Glo® Reagent) directly to cells cultured in serum-supplemented medium. The assay uses this one-step addition to induce cell lysis and generate a luminescent signal proportional to the amount of ATP present which is directly proportional to the number of metabolically active cells present in culture. The following cell lines were evaluated in this assay: NIH3T3/EGFR_L858R, NIH3T3/EGFR_E746-A750_deletion, NIH3T3/EGFR L858R+T790M, NIH3T3/EGFR_E746-A750_deletion+T790M, PC-9, PC9-DRH, NCI-H1975, and NCI-H3255. NIH/3T3 parental cells, NCI-H1975, and NCI-H3255 were purchased from the American Type Culture Collection (Manassas, Va.), and PC-9 cells were obtained from Japan. All cells were cultured according to recommendations. NIH/3T3 cells were grown in DMEM (Invitrogen, Carlsbad, Calif.) supplemented with 10% newborn calf serum (Invitrogen), and NIH3T3/EGFR mutant cells were grown in complete media with 5 μg/mL puromycin (Invitrogen). PC-9, NCI-H1975, and NCI-H3255 were grown in RPMI (Invitrogen, Carlsbad, Calif.) supplemented with 10% FBS (Sigma, St Louis, Mo.), and PC9-DRH cells were grown in complete media with 2 uM PF-00299804. Plasmids (pLPCX) with various EGFR constructs were made by GenScript (Piscataway, N.J.), and stable pools of NIH/3T3 cells expressing these constructs were made at Pfizer La Jolla. PC9-DRH cells were generated at Pfizer La Jolla by exposing cells to increasing concentrations of PF-00299804. Cells were plated in complete culture media (3000-5000 cells/well, 50 μl/well) on the bottom of white clear-bottom tissue culture treated microtiter plates (#3610, Corning Inc, Corning, N.Y.) and allowed to adhere overnight at 37° C., 5% CO2. The following day, compound dilution plates were prepared in 96 well clear V-bottom 0.5 mL polypropylene block plates (#3956, Corning, Inc). All cell lines were not evaluated for each compound. Each compound evaluated was prepared as a DMSO stock solution (10 mM). Compounds were tested in duplicate on each plate, with an 11-point serial dilution curve (1:3 dilution). Compound treatment (50 μl) was added from the compound dilution plate to the cell plate. The highest compound concentration was 1 or 10 μM (final), with a 0.3% final DMSO (#D-5879, Sigma, St Louis, Mo.) concentration. Plates were then incubated at 37° C., 5% CO2. After three to five days of compound treatment, CellTiter-Glo® Reagent (#G7573, Promega, Madison, Wis.) was prepared in one of two ways. If thawing a frozen aliquot of CellTiter-Glo® Reagent, the aliquot was thawed and equilibrated to room temperature prior to use while keeping it protected from light. Alternatively, new bottles of CellTiter-Glo® Buffer and CellTiter-Glo® Substrate were thawed and equilibrated to room temperature prior to use. CellTiter-Glo® Buffer (100 mL) was transferred into the amber bottle containing CellTiter-Glo® Substrate to reconstitute the lyophilized enzyme/substrate mixture, forming the CellTiter-Glo® Reagent. The reconstituted reagent was mixed by gently inverting the contents to obtain a homogeneous solution, and went into solution easily in less than one minute. Any unused reconstituted CellTiter-Glo® Reagent was immediately aliquoted and frozen at −20° C., protected from light. Cell plates were equilibrated at room temperature for approximately 30 minutes. An equivolume amount of CellTiter-Glo® Reagent (100 μL) was added to each well. Plates were mixed for two minutes on an orbital shaker to induce cell lysis, and then allowed to incubate at room temperature for 10 minutes to stabilize the luminescent signal. Luminescence was recorded using the PerkinElmer EnVision Excite Multilabel Reader used for endpoint reading for Luminescence detection (Waltham, Mass.). Data were analyzed using a four-parameter fit in Microsoft Excel. […]

[2] = test system: NIH3T3/EGFR_E746-A750_deletion+T790M; test: Cell proliferation assay (CellTiter-Glo), NIH3T3/EGFR_E746-A750_deletion+T790M; conditions: Mus musculus, NIH3T3, 120 h, 3T3 cell line, three to five days of compound treatment, read-out: 3T3 del_T790M IC50
Procedure: as §1

NIH3T3/EGFR_L858R = test: Cell proliferation assay (CellTiter-Glo), NIH3T3/EGFR_L858R; conditions: Mus musculus, NIH3T3, 120 h, 3T3 cell line, three to five days of compound treatment, read-out: 3T3 L858R IC50
Procedure: as §1

NIH3T3/EGFR L858R+T790M = test: Cell proliferation assay (CellTiter-Glo), NIH3T3/EGFR L858R+T790M; conditions: Mus musculus, NIH3T3, 120 h, 3T3 cell line, three to five days of compound treatment, read-out: 3T3 L858R_T790M IC50
[3] = molecular target: T1, EGFR wildtype, endogenous (Homo sapiens, UniProt P00533); test: pEGFR Y1068 ELISA assay, A549 cells; conditions: full serum media, stimulated 10 min with EGF (40 ng/mL), read-out: pEGFRY1068 ELISAA549 IC50;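 note: sandwich ELISA of phospho-EGFR Tyr1068 in cell lysates, cells exposed to compound for 2 h before EGF stimulation, 11-point threefold dilution series run in duplicate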
T1 construct: A549 (EGFR wildtype, endogenous); host or cells: A549

EGFR E746-A750 deletion = EGFR E746-A750 deletion (Homo sapiens, UniProt P00533, DEL746-750); test: pEGFR Y1068 ELISA assay, NIH3T3/EGFR_E746-A750 deletion cells; conditions: 3T3 Del cells, 2 hrs compound treatment; read-out: ELISA7E 3T3 Del IC50;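 note: sandwich ELISA on cell lysates detecting phospho-EGFR at Tyr1068, compounds run as 11-point threefold dilution series in duplicate, IC50 from inhibition of this phosphorylation signal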
EGFR L858R+T790M = EGFR L858R+T790M (Homo sapiens, UniProt P00533, L858R/T790M); test: pEGFR Y1068 ELISA assay, NIH3T3/EGFR_L858R+T790M cells; conditions: 3T3 cell line, 2 hrs compound treatment; read-out: pEGFRY1068 ELISA3T3T790M—L858R IC50;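 note: sandwich ELISA of EGFR phosphorylated at Tyr1068 in lysates of stably transfected NIH/3T3 cells, 11-point threefold dilution series run in duplicate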
EGFR L858R = EGFR L858R (Homo sapiens, UniProt P00533, L858R); test: pEGFR Y1068 ELISA assay, NIH3T3/EGFR_L858R cells; conditions: 3T3 cell line, 2 hrs compound treatment; read-out: pEGFRY1068 ELISA3T3 L858R IC50;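 note: sandwich ELISA of phospho-EGFR Tyr1068 in lysates of stably transfected NIH/3T3 pools after 2 h compound exposure at 37 °C, 11-point threefold dilution series run in duplicate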
Chain of EGFR L858R (P00533 25-1210 L858R): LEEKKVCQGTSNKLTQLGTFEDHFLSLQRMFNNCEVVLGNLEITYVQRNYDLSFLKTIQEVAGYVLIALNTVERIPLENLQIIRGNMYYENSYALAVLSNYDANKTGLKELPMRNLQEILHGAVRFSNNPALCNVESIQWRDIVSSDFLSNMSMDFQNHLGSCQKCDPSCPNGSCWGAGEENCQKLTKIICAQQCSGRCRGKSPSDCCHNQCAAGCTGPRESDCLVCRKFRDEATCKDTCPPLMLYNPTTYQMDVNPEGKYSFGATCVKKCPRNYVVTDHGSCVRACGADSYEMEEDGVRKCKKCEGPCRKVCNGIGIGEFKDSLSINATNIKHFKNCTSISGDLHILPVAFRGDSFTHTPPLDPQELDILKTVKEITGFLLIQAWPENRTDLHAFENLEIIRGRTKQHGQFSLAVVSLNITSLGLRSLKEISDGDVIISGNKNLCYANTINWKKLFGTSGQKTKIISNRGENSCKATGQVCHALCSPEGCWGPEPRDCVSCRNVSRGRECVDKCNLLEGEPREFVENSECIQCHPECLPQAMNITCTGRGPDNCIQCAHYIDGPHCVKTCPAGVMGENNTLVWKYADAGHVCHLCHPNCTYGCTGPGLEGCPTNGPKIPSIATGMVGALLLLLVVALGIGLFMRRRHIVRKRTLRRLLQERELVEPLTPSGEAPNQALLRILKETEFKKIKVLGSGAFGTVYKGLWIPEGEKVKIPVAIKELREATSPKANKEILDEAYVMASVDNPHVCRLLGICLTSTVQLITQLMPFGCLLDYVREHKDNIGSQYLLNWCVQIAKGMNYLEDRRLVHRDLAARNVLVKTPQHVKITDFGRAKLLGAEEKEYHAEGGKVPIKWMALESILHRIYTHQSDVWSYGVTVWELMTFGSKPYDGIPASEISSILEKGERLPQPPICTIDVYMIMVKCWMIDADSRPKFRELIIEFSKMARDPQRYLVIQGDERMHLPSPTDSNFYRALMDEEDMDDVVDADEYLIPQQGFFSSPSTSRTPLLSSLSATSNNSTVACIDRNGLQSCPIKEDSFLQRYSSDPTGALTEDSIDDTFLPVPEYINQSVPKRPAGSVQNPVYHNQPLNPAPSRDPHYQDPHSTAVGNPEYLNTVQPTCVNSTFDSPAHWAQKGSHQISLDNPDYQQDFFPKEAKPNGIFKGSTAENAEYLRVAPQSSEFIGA

T1 sequence (P00533 25-1210): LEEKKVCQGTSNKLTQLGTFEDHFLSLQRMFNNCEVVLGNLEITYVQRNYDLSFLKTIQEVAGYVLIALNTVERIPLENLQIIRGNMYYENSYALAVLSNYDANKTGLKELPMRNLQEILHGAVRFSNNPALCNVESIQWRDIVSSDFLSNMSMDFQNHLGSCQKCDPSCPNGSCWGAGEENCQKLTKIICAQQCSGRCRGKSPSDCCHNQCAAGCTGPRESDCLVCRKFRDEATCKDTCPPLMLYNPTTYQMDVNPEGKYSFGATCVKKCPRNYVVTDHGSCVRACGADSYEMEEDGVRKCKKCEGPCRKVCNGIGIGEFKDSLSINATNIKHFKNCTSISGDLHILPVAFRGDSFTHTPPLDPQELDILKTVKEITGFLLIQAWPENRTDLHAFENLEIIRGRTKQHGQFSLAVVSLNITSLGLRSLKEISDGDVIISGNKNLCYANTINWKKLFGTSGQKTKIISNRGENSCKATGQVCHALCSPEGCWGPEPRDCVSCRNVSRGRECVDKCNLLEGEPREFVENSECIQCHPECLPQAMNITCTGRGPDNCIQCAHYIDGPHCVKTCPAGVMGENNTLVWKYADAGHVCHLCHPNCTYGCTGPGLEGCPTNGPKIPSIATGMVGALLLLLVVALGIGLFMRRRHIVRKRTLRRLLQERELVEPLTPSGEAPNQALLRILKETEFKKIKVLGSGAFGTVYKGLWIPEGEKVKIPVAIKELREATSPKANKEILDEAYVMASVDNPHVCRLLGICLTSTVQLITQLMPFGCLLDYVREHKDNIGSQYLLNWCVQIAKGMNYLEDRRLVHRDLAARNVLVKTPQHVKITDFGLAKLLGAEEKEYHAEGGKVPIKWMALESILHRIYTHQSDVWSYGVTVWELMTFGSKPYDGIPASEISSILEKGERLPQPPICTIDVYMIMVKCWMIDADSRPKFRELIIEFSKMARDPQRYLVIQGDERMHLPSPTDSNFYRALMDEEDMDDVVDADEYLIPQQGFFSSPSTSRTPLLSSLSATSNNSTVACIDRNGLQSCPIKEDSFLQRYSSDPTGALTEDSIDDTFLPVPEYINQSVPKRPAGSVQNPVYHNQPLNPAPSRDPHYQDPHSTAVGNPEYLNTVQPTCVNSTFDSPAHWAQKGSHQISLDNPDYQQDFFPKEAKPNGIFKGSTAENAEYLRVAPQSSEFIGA
Chain of EGFR E746-A750 deletion (P00533 with tags, fused parts or gaps DEL746-750): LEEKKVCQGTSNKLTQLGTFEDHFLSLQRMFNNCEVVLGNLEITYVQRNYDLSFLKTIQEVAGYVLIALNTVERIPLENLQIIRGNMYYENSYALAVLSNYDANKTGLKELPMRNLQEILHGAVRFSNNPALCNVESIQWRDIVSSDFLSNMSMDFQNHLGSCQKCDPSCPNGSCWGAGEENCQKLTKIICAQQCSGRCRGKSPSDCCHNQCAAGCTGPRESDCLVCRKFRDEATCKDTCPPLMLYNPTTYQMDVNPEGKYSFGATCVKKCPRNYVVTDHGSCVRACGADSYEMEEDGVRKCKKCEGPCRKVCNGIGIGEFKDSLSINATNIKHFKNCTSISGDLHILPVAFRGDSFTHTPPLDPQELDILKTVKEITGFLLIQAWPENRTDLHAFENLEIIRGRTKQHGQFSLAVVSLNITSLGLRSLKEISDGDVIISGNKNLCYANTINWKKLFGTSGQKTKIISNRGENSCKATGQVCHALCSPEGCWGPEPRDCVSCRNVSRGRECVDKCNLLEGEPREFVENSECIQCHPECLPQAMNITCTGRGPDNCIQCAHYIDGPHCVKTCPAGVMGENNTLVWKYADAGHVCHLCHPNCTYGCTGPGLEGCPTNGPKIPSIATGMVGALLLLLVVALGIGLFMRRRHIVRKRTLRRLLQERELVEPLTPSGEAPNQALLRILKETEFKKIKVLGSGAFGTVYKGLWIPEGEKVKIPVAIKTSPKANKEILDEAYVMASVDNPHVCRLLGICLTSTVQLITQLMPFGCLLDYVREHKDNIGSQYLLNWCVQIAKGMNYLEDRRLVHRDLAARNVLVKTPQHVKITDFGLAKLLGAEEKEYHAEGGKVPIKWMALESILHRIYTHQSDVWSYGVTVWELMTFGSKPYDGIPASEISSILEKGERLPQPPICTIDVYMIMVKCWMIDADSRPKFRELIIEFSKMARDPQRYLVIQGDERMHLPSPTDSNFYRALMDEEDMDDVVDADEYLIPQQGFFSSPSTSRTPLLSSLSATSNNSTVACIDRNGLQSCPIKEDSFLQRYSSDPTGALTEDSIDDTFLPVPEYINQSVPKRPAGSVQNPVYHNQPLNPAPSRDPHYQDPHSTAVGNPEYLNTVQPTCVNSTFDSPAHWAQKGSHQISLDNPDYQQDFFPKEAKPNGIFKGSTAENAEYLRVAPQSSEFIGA
Chain of EGFR L858R+T790M (P00533 25-1210 T790M/L858R): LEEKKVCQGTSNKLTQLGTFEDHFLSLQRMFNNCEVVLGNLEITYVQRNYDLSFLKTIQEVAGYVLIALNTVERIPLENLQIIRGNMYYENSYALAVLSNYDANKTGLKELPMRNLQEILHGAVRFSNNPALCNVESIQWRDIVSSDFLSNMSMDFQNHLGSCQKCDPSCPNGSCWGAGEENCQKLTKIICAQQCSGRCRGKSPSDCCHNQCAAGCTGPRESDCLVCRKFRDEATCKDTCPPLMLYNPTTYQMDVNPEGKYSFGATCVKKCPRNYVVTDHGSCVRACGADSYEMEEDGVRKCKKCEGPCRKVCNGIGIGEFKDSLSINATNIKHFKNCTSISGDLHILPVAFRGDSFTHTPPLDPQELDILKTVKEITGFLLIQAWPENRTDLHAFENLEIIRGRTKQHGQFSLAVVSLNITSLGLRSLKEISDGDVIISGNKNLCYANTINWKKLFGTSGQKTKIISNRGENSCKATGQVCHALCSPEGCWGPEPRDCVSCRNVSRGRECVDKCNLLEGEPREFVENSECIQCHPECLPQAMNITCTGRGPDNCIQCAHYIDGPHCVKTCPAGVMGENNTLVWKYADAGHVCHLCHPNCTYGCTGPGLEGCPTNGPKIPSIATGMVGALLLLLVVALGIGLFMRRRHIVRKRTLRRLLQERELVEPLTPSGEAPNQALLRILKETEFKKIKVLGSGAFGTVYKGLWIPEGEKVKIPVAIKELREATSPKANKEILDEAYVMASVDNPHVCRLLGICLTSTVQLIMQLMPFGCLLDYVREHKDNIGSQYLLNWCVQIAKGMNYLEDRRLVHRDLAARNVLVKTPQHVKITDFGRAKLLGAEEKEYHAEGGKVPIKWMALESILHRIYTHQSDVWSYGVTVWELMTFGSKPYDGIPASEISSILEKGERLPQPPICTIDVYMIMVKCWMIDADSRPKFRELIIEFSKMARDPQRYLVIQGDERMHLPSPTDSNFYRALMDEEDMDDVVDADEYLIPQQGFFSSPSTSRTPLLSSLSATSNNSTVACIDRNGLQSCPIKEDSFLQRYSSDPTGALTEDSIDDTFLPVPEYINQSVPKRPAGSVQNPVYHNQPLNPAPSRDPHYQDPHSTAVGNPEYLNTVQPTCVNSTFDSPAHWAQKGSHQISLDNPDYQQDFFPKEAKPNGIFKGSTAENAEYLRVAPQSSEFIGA

| IC50 [3] | IC50 (EGFR E746-A750 deletion) | IC50 (EGFR L858R+T790M) | IC50 (EGFR L858R) | Structure (SMILES) | IC50 [1] | IC50 [2] | IC50 (NIH3T3/EGFR_L858R) | IC50 (NIH3T3/EGFR L858R+T790M) |
| --- | --- | --- | --- | --- | --- | --- | --- | --- |
| – | – | – | – | C=CC(=O)N1C[C@H](COc2nc(Nc3cnn(C)c3)nc3[nH]cc(Cl)c23)[C@@H](OC)C1 [Example 9, 1-{(3R,4R)-3-[5-chloro-2-(1-methyl-1H-pyrazol-4-ylamino)-7H-pyrrolo[2,3-d]pyrimidin-4-yloxymethyl]-4-methoxy-pyrrolidin-1-yl}propenone trifluoroacetate] | 10 to 100 nM | < 10 nM | 100 to 1000 nM | 100 to 1000 nM |
| > 5460 nM | 356 nM | 20 nM | 143 nM | C=CC(=O)N1C[C@@H]2CN(c3nc(Nc4cnn(C)c4)nc4[nH]cc(Cl)c34)C[C@@H]2C1 [Example 71] | 10 to 100 nM | 10 to 100 nM | 100 to 1000 nM | 100 to 1000 nM |
| > 10000 nM | 1220 nM | 67 nM | 2010 nM | C=CC(=O)N[C@H]1C[C@H](Oc2nc(Nc3cnn(C)c3)nc3[nH]cc(Cl)c23)C1 [Example 63] | > 1000 nM | 100 to 1000 nM | > 1000 nM | > 1000 nM |
| > 10000 nM | 1170 nM | 44 nM | 510 nM | C=CC(=O)N1CC[C@@H](Oc2nc(Nc3cnn(C)c3)nc3[nH]cc(Cl)c23)C1 [Example 65] | 100 to 1000 nM | 10 to 100 nM | 100 to 1000 nM | 100 to 1000 nM |
| 1340 nM | 98 nM | 9 nM | 47 nM | C=CC(=O)Nc1cccc(Oc2nc(Nc3cn(C)nc3C(F)(F)F)nc3[nH]ccc23)c1 [Example 32] | 10 to 100 nM | < 10 nM | > 1000 nM | 10 to 100 nM |
| > 6380 nM | 44 nM | 20 nM | 99 nM | C=CC(=O)Nc1cccc(Oc2nc(Nc3cnn(C)n3)nc3[nH]ccc23)c1 [Example 40] | 10 to 100 nM | < 10 nM | > 1000 nM | 10 to 100 nM |
| > 10000 nM | 27 nM | 11 nM | 81 nM | C=CC(=O)Nc1cccc(Oc2nc(Nc3ccn(CC)n3)nc3[nH]ccc23)c1 [Example 22] | < 10 nM | < 10 nM | 100 to 1000 nM | 10 to 100 nM |
| 947 nM | – | 11 nM | 105 nM | C=CC(=O)Nc1cccc(Oc2nc(Nc3cnn(C(C)C)c3)nc3[nH]ccc23)c1 [Example 31] | 10 to 100 nM | 10 to 100 nM | > 1000 nM | 10 to 100 nM |
| – | – | – | – | C=CC(=O)Nc1cccc(Oc2nc(Nc3cnn(C)c3)nc3[nH]ccc23)c1 [Example 35] | < 10 nM | < 10 nM | 100 to 1000 nM | < 10 nM |
| – | – | – | – | C=CC(=O)N1C[C@H](COc2nc(Nc3cnn([C@@H]4CCOC4)c3)nc3[nH]cc(Cl)c23)[C@@H](OC)C1 [Example 72] | 100 to 1000 nM | 10 to 100 nM | 100 to 1000 nM | 100 to 1000 nM |
| 2920 nM | 29 nM | 11 nM | 141 nM | C=CC(=O)Nc1cccc(Oc2nc(Nc3cnn(CCN(C)C)c3)nc3[nH]ccc23)c1 [Example 2, N-(3-{[2-({1-[2-(dimethylamino)ethyl]-1H-pyrazol-4-yl}amino)-7H-pyrrolo[2,3-d]pyrimidin-4-yl]oxy}phenyl)prop-2-enamide] | < 10 nM | < 10 nM | 100 to 1000 nM | < 10 nM |
| > 10000 nM | 1020 nM | 80 nM | 1810 nM | C=CC(=O)N1C[C@H](COc2nc(Nc3cnn(C)c3)nc3[nH]cc(Cl)c23)[C@@H]([C@H](C)O)C1 (single isomer, unassigned) [Example 10] | 100 to 1000 nM | 10 to 100 nM | > 1000 nM | > 1000 nM |
| > 10000 nM | 45 nM | 20 nM | 418 nM | C=CC(=O)Nc1cccc(Oc2nc(Nc3ccn(C)n3)nc3[nH]cc(C#N)c23)c1 [Example 36] | 10 to 100 nM | 10 to 100 nM | > 1000 nM | 100 to 1000 nM |
| > 10000 nM | – | 26 nM | 855 nM | C=CC(=O)N1CCOC2(CCN(c3nc(Nc4cnn(C)c4)nc4[nH]cc(Cl)c34)C2)C1 (stereo not drawn) [Example 76] | 100 to 1000 nM | 100 to 1000 nM | > 1000 nM | 100 to 1000 nM |
| – | – | – | – | C=CC(=O)N1C[C@H](COC)[C@@H](COc2nc(Nc3cnn(C)c3)nc3[nH]cc(Cl)c23)C1 [Example 74] | 10 to 100 nM | 10 to 100 nM | 100 to 1000 nM | 100 to 1000 nM |
| > 10000 nM | – | 37 nM | 490 nM | C=CC(=O)N1CC(Oc2nc(Nc3cnn(C)c3)nc3[nH]cc(Cl)c23)C1 [Example 105] | 100 to 1000 nM | 100 to 1000 nM | 100 to 1000 nM | 100 to 1000 nM |
| > 10000 nM | 1060 nM | 42 nM | 208 nM | C=CC(=O)N1C[C@H](COc2nc(Nc3cn(C)nc3CC)nc3[nH]cc(F)c23)[C@@H](OC)C1 [Example 68] | 100 to 1000 nM | 10 to 100 nM | 100 to 1000 nM | 100 to 1000 nM |
| > 10000 nM | – | 69 nM | 3550 nM | C=CC(=O)N(C)[C@H]1C[C@H](Oc2nc(Nc3cnn(CC(O)CN(C)C)c3)nc3[nH]cc(Cl)c23)C1 (stereo partly drawn) [Example 75] | 100 to 1000 nM | 10 to 100 nM | > 1000 nM | 100 to 1000 nM |
| 4030 nM | – | 14 nM | 170 nM | C=CC(=O)Nc1cccc(Oc2nc(Nc3cnn(C4CCN(C)C4)c3)nc3[nH]ccc23)c1 (stereo not drawn) [Example 34] | < 10 nM | < 10 nM | 100 to 1000 nM | 10 to 100 nM |
| – | – | – | – | C=CC(=O)N1CC[C@@H](COc2nc(Nc3cnn(C)c3)nc3[nH]cc(Cl)c23)C1 [Example 64] | < 10 nM | < 10 nM | 10 to 100 nM | 10 to 100 nM |
